The values that follow come from US20090175845A1, “METHODS FOR IDENTIFYING COMPOUNDS THAT MODULATE PHB DOMAIN PROTEIN ACTIVITY AND COMPOSITIONS THEREOF” (THE TRUSTEES OF COLUMBIA UNIVERSITY IN THE CITY OF NEW YORK, priority 2005, published 2009).

Test [1] relates to mec-2 null worms expressing the mec-2(C140/174A) gene. Nature of the test: C. elegans gentle touch sensitivity on plates with defined sterols. Particulars: sterol substituted for cholesterol in the growth medium, FIG. 8C. The format is in vivo. As to the method:
C. elegans experiments. C. elegans strains were cultured at 20° C., assayed for touch sensitivity, and prepared for immunofluorescence as described previously [Zhang et al. (2004) Curr. Biol. 14:1888-96; Goodman et al. (2002) Nature 415:1039-42]. Briefly, C. elegans strains were cultured at 20° C. as described in the art. Strains were grown for at least three consecutive generations without starvation before carrying out the experiments described herein. Gentle touch and harsh touch sensitivity were assayed in blind tests by stimulating with an eyebrow hair or prodding with a platinum wire, respectively, as described in the art. To quantify the response, the number of responses in about 30 animals to 10 touches delivered alternately near the head and tail was recorded. Whole-mount immunofluorescence microscopy was carried out using methods known in the art.
Media for growth on limiting or no cholesterol or on other sterols were prepared from chloroform-extracted reagents as described by Matyash et al. [(2004) PLoS Biol. 2: e280].
First, a version of MEC-2 with reduced cholesterol binding was generating by mutating the predicted palmitoylation sites of the protein. Briefly, HEK293T cells were transfected with wild type MEC-2 or MEC-2(C140/174A) and labeled with [^3H]palmitic acid or [^3H]photoaffinity cholesterol. Equal expression of proteins in the lysates was confirmed on Western blots. […] Because touch sensitivity of wild-type animals was not affected by this limited cholesterol depletion, the effects observed with the palmitoylation mutant cannot be attributed to indirect effects on neuronal growth or development. Test compounds that target palmitoylation sites in PHB domain proteins can be used to modulate activity of such proteins, for example, by reducing their activity.

In another test the target is T1, TRPC6 (Homo sapiens, UniProt Q9Y210).
T1 construct: expressed in transfected cells; host or cells: Xenopus laevis oocytes (cRNA injection)
T1 sequence (Q9Y210 1-931): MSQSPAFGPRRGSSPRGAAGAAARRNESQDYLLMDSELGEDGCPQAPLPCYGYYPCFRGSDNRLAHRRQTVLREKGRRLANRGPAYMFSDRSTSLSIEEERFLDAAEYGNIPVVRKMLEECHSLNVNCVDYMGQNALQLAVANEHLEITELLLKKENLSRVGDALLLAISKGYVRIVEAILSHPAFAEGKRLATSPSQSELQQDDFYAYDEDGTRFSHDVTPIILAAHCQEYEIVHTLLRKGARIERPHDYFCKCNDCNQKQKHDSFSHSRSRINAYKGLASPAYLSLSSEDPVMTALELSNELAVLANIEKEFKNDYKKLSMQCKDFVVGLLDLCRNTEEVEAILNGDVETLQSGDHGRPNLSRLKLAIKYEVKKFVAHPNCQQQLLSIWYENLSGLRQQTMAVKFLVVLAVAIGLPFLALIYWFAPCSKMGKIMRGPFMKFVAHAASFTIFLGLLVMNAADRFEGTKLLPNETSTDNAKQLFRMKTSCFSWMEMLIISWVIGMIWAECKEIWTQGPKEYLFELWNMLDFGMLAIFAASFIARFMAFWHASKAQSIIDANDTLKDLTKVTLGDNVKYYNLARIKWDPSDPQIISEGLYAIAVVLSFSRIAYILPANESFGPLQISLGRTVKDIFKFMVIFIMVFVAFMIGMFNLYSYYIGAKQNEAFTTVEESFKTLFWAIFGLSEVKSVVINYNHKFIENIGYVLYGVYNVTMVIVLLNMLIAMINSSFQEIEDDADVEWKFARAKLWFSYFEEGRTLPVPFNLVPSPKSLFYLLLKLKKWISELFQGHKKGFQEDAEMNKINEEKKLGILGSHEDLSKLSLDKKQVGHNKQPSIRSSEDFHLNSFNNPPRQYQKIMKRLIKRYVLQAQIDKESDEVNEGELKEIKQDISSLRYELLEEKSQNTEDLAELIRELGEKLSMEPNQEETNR
Kind of test: Oocyte electrophysiology, two-electrode voltage clamp. Type of test: cell-based. The settings on record: TRPC6-expressing Xenopus laevis oocytes, Ca2+ free bath solution, 10 μM. How it is done:
Oocyte Electrophysiology. Xenopus laevis oocytes were isolated from adult frogs (Kähler, Hamburg, Germany), dispersed and defolliculated by a 45 minute treatment with collagenase (type A, Boehringer, Germany), and were rinsed and kept at 18° C. in ND96-buffer (in mmol/l): NaCl 96, KCI 2, CaCl2 1.8, MgCl2 1, HEPES 5, Na-pyruvate 2.5, pH 7.55), supplemented with theophylline (0.5 mmol/l) and gentamycin (5 mg/l).
To prepare cRNAs for TRPC6, Podocin and Podocin-DPHB (Podocin-ΔPHB), cDNAs encoding TRPC6, Podocin and Podocin-DPHB were transcribed in vitro using the T7 promoter and polymerase (Promega, Madison, Wis.). After isolation from adult Xenopus laevis female frogs (Kähler, Hamburg, Germany), oocytes were dispersed and defolliculated by a 45 minute treatment with collagenase (type A, Boebringer, Germany). Subsequently, the oocytes were rinsed and kept at 18° C. in ND96-buffer (in mmol/l): NaCl 96, KCI 2, CaCI2 1.8, MgCI2 1, HEPES 5, Na-pyruvate 2.5, pH. […] Membrane currents were measured by voltage clamping of the oocytes (Warner oocyte clamp amplifier OC725C) in intervals from −60 to +40 mV, each 1 s. Conductances were calculated according to Ohm's law. Na^+ conductances were determined by replacing Na^+ by n-methyl-D-glucamine (GNMDG) in a Ca^2+ free bath solution, before and after stimulation with 10 μM dioctanoyl glycerol (Sigma, Germany). […]
In general terms: In two-electrode clamp one electrode senses voltage and the other passes current.

On to `CC(C)CCC[C@@H](C)[C@H]1CC[C@H]2C3=CC=C4C[C@@H](O)CC[C@]4(C)[C@H]3CC[C@]12C` [7-dehydro cholesterol], for which the “rescue of reduced touch sensitivity” value in test [1] is listed as “could be rescued”.

With `CC(C)[C@@H](C)/C=C/[C@@H](C)[C@H]1CC[C@H]2C3=CC=C4C[C@@H](O)CC[C@]4(C)[C@H]3CC[C@]12C` [ergosterol], the “rescue of reduced touch sensitivity” value in test [1] was “could be rescued”.

Take `CCCCCCCC/C=C\CCCCCCCC(=O)OC[C@H](CO)OC(C)=O` [OAG, 1-oleoyl-2-acetyl-sn-glycerol]: the “inward Na+ current” value at TRPC6 is “further augmented”.

Take `CC(C)CCC[C@@H](C)[C@H]1CC[C@H]2C3=CC[C@H]4C[C@@H](O)CC[C@]4(C)[C@H]3CC[C@]12C` [lathosterol]: the “rescue of reduced touch sensitivity” value in test [1] is “could be rescued”.
